Source: the NIST ThermoML archive (doi:10.1016/j.tca.2014.02.019)

Experiment: xn = mol fraction of the nth substance listed
Details: 101 kPa, Liquid; for viscosity: Falling or rolling sphere viscometry; for mass density: Vibrating tube method

CCOS(=O)(=O)[O-].CC[N+]1(C)CCCC1 [1-ethyl-1-methylpyrrolidinium ethyl sulfate] + O
Details	mass density [kg/m3]	viscosity [mPa·s]
313.15 K, x1 = 0.0348	1046.88	1.414
313.15 K, x1 = 0.0933	1095.76	3.185
313.15 K, x1 = 0.1312	1114.51	5.031
313.15 K, x1 = 0.2458	1144.25	10.31
313.15 K, x1 = 0.3495	1155.83	15.65
313.15 K, x1 = 0.5281	1166.58	27.98
313.15 K, x1 = 0.693	1171.73	42.48
313.15 K, x1 = 0.7794	1172.62	51.33
313.15 K, x1 = 0.895	1174.19	64.67
313.15 K, x1 = 1	1176.31	78.32
318.15 K, x1 = 0.0348	1044.06	1.27
318.15 K, x1 = 0.0933	1092.47	2.8
318.15 K, x1 = 0.1312	1111.07	4.391
318.15 K, x1 = 0.2458	1140.77	8.889
318.15 K, x1 = 0.3495	1152.31	13.37
318.15 K, x1 = 0.5281	1163.34	23.71
318.15 K, x1 = 0.693	1168.5	35.67
318.15 K, x1 = 0.7794	1169.22	42.9
318.15 K, x1 = 0.895	1171.07	53.73
318.15 K, x1 = 1	1173.63	64.72
323.15 K, x1 = 0.0348	1041.44	1.149
323.15 K, x1 = 0.0933	1089.13	2.479
323.15 K, x1 = 0.1312	1107.59	3.87
323.15 K, x1 = 0.2458	1137.17	7.729
323.15 K, x1 = 0.3495	1149.28	11.6
323.15 K, x1 = 0.5281	1160.06	20.29
323.15 K, x1 = 0.693	1165.16	30.18
323.15 K, x1 = 0.7794	1165.65	36.07
323.15 K, x1 = 0.895	1167.97	44.78
323.15 K, x1 = 1	1170.95	53.51
328.15 K, x1 = 0.0348	1038.48	1.046
328.15 K, x1 = 0.0933	1085.76	2.211
328.15 K, x1 = 0.1312	1103.99	3.392
328.15 K, x1 = 0.2458	1133.19	6.803
328.15 K, x1 = 0.3495	1145.36	10.13
328.15 K, x1 = 0.5281	1156.72	17.54
328.15 K, x1 = 0.693	1161.95	25.84
328.15 K, x1 = 0.7794	1162.9	30.7
328.15 K, x1 = 0.895	1164.87	37.8
328.15 K, x1 = 1	1168.27	44.82
333.15 K, x1 = 0.0348	1035.45	0.992
333.15 K, x1 = 0.0933	1082.31	1.985
333.15 K, x1 = 0.1312	1100.26	2.943
333.15 K, x1 = 0.2458	1129.65	6.014
333.15 K, x1 = 0.3495	1142.23	8.896
333.15 K, x1 = 0.5281	1153.16	15.32
333.15 K, x1 = 0.693	1158.04	22.4
333.15 K, x1 = 0.7794	1160.04	26.46
333.15 K, x1 = 0.895	1162.1	32.29
333.15 K, x1 = 1	1165.59	37.95
338.15 K, x1 = 0.0348	1033.08	0.983
338.15 K, x1 = 0.0933	1079.2	1.8
338.15 K, x1 = 0.1312	1097.07	2.454
338.15 K, x1 = 0.2458	1125.34	5.34
338.15 K, x1 = 0.3495	1138.14	7.739
338.15 K, x1 = 0.5281	1150.02	13.29
338.15 K, x1 = 0.693	1155.15	19.06
338.15 K, x1 = 0.7794	1156.48	22.65
338.15 K, x1 = 0.895	1158.93	27.65
338.15 K, x1 = 1	1162.91	32.87
343.15 K, x1 = 0.0348	1030.38	0.976
343.15 K, x1 = 0.0933	1075.92	1.61
343.15 K, x1 = 0.1312	1093.61	1.923
343.15 K, x1 = 0.2458	1122.44	4.202
343.15 K, x1 = 0.3495	1135.34	6.568
343.15 K, x1 = 0.5281	1146.94	11.31
343.15 K, x1 = 0.693	1152.01	16.47
343.15 K, x1 = 0.7794	1153.23	19.55
343.15 K, x1 = 0.895	1155.85	24.69
343.15 K, x1 = 1	1160.23	29.23

CCOS(=O)(=O)[O-].CC[N+]1(C)CCOCC1 [4-ethyl-4-methylmorpholinium ethyl sulfate] + O
Details	mass density [kg/m3]	viscosity [mPa·s]
298.15 K, x1 = 0.1255	1160.26	7.655
298.15 K, x1 = 0.2214	1196.87	20.62
298.15 K, x1 = 0.3165	1215.39	46.5
298.15 K, x1 = 0.4406	1229.15	115.6
298.15 K, x1 = 0.6319	1240.92	529.2
298.15 K, x1 = 0.7239	1244.69	686.5
298.15 K, x1 = 0.807	1247.34	2262
298.15 K, x1 = 1	1252.26	–
303.15 K, x1 = 0.1255	1157.12	6.513
303.15 K, x1 = 0.2214	1193.61	16.92
303.15 K, x1 = 0.3165	1212.17	36.79
303.15 K, x1 = 0.4406	1226.03	93.81
303.15 K, x1 = 0.6319	1237.71	400.9
303.15 K, x1 = 0.7239	1241.43	533.1
303.15 K, x1 = 0.807	1244.19	1630
303.15 K, x1 = 1	1249.05	–
308.15 K, x1 = 0.1255	1153.95	5.589
308.15 K, x1 = 0.2214	1190.35	14.11
308.15 K, x1 = 0.3165	1208.94	29.62
308.15 K, x1 = 0.4406	1222.87	72.42
308.15 K, x1 = 0.6319	1234.48	309.1
308.15 K, x1 = 0.7239	1238.23	408.3
308.15 K, x1 = 0.807	1241	1088
308.15 K, x1 = 1	1245.86	–
313.15 K, x1 = 0.1255	1150.75	4.817
313.15 K, x1 = 0.2214	1187.08	11.93
313.15 K, x1 = 0.3165	1205.7	24.24
313.15 K, x1 = 0.4406	1219.69	57.41
313.15 K, x1 = 0.6319	1231.24	226.8
313.15 K, x1 = 0.7239	1235.04	308.8
313.15 K, x1 = 0.807	1237.81	746.9
313.15 K, x1 = 1	1242.67	2426
318.15 K, x1 = 0.1255	1147.52	4.176
318.15 K, x1 = 0.2214	1183.79	10.2
318.15 K, x1 = 0.3165	1202.45	20.16
318.15 K, x1 = 0.4406	1216.5	46.03
318.15 K, x1 = 0.6319	1228.05	170.3
318.15 K, x1 = 0.7239	1231.83	240
318.15 K, x1 = 0.807	1234.63	526.7
318.15 K, x1 = 1	1239.51	1677
323.15 K, x1 = 0.1255	1144.26	3.673
323.15 K, x1 = 0.2214	1180.48	8.814
323.15 K, x1 = 0.3165	1199.19	16.96
323.15 K, x1 = 0.4406	1213.31	37.3
323.15 K, x1 = 0.6319	1224.95	130.6
323.15 K, x1 = 0.7239	1228.72	180.6
323.15 K, x1 = 0.807	1231.45	379.7
323.15 K, x1 = 1	1236.35	1129
328.15 K, x1 = 0.1255	1140.96	2.845
328.15 K, x1 = 0.2214	1177.17	7.649
328.15 K, x1 = 0.3165	1195.92	14.47
328.15 K, x1 = 0.4406	1210.11	30.77
328.15 K, x1 = 0.6319	1221.84	101.7
328.15 K, x1 = 0.7239	1225.53	138.4
328.15 K, x1 = 0.807	1228.26	280.6
328.15 K, x1 = 1	1233.2	779.3
333.15 K, x1 = 0.1255	1137.63	2.896
333.15 K, x1 = 0.2214	1173.83	6.732
333.15 K, x1 = 0.3165	1192.63	12.44
333.15 K, x1 = 0.4406	1206.91	25.72
333.15 K, x1 = 0.6319	1218.72	80.93
333.15 K, x1 = 0.7239	1222.36	108.1
333.15 K, x1 = 0.807	1225.07	211.6
333.15 K, x1 = 1	1230.06	552.3
338.15 K, x1 = 0.1255	1134.26	2.626
338.15 K, x1 = 0.2214	1170.4	5.925
338.15 K, x1 = 0.3165	1189.38	10.79
338.15 K, x1 = 0.4406	1203.71	21.68
338.15 K, x1 = 0.6319	1215.6	65
338.15 K, x1 = 0.7239	1219.28	85.65
338.15 K, x1 = 0.807	1221.94	162.7
338.15 K, x1 = 1	1226.93	400.8
343.15 K, x1 = 0.1255	1130.86	2.124
343.15 K, x1 = 0.2214	1167.12	5.3
343.15 K, x1 = 0.3165	1186.1	9.457
343.15 K, x1 = 0.4406	1200.5	18.46
343.15 K, x1 = 0.6319	1212.48	53
343.15 K, x1 = 0.7239	1216.18	68.72
343.15 K, x1 = 0.807	1218.8	126.8
343.15 K, x1 = 1	1223.81	297.3
